The series in a line: Long-term storage stability of NCA, purity by DSC. Format: physicochemical. The settings on record: for Purity after purification / Purity after 1 month from purification / Purity after 2 months from purification / Purity after a half year from purification / Purity after 1 year from purification / Purity after 2 years from purification: DSC. The method, then:
In Examples and Comparative Examples, the purity of each NCA was measured using differential scanning calorimeter (DSC) in accordance with 2.52 thermal analysis method of The Japanese Pharmacopoeia, 17th ed. (2.4.4. measurement of purity). The measurement was performed using Thermo plus EVO DSC8230 (manufactured by Rigalu Corporation) as a measurement apparatus with the sample amount of 1 mg at a temperature increasing rate of 1° C./minute. Incidentally, it is conceived that precise measurement cannot be guaranteed unless the purity is 98 mol % or more according to 2.52 thermal analysis method of The Japanese Pharmacopoeia, 17th ed. (2.4.4. measurement of purity).
Each purified NCA was evaluated for long-term storage stability. […] Regarding the conditions of −20±5° C., the results of purity measured by DSC at after a half year, after 1 year, and after 2 years are shown. Regarding the conditions of 0 to 5° C., the results of purity measured by DSC at after 1 month, 2 months, and a half year are shown. As a comparison, commercially available NCA shown by the general formula (A) (manufactured by Isochem), the purity of which is more than 98 mol % based on the DSC measurement, was evaluated and shown as Comparison 1. This NCA has a residual chlorine concentration of 0.030 mass % and belongs to a lot with extremely low residual chlorine concentration in commercially available NCAs.
(In general: In DSC, transitions show as peaks or steps in heat flow.)

Setting [1] is: initial value of storage test at 0 to 5° C.
Where [2] appears, read: initial value of storage test at −20±5° C.

For `CC(C)(C)OCCCC1NC(=O)OC1=O` (stereo not shown) [(F)], the Purity after purification under setting [1] was determined as 99.10 mol %. For the same compound, the Purity after purification under setting [2] came to 99.10 mol %. Further, for the setting “storage at 0 to 5° C.”, the “Purity after 1 month from purification” value was found to be 99.12 mol %, the “Purity after 2 months from purification” value stood at 99.10 mol % and the “Purity after a half year from purification” value (from here on “Purity after a half year”) was determined as 99.10 mol %. Under “storage at −20±5° C.”, the “Purity after 1 year from purification” value turned out to be 99.12 mol %, the “Purity after 2 years from purification” value is recorded as 99.12 mol % and the “Purity after a half year” value came to 99.12 mol %.
In the case of `CC(C)(C)OC(=O)CCC1CC(=O)OC1=O` (stereo not shown) [Comparison 1, reference compound], for the setting “0 to 5° C., up to a half year”, the “long term storage stability (lowering of purity) at 0 to 5° C.” value is recorded as “lowered in 1 month”. This compound also had a Purity after purification under setting [1] of 98.14 mol %. Also, the Purity after purification under setting [2] is given as 98.14 mol %. Further, under “storage at 0 to 5° C.”, the “Purity after 1 month from purification” value is listed as under 98 mol %, the “Purity after 2 months from purification” value is listed as under 98 mol % and the “Purity after a half year” value was under 98 mol %. In addition, for the setting “storage at −20±5° C.”, the “Purity after 1 year from purification” value is given as 98.02 mol %, the “Purity after 2 years from purification” value is listed as under 98 mol % and the “Purity after a half year” value is 98.06 mol %. The “long term storage stability (lowering of purity) at −20° C.” value (−20° C., up to 2 years) is “the purity was lowered in 2 years”.
`O=C(CC1NC(=O)OC1=O)OCc1ccccc1` (stereo not shown) [(G)] came in with a Purity after purification under setting [1] of 99.25 mol %. This compound also returned a Purity after purification under setting [2] of 99.25 mol %. Also, under “storage at 0 to 5° C.”, the “Purity after 1 month from purification” value amounted to 99.24 mol %, the “Purity after 2 months from purification” value was 99.25 mol % and the “Purity after a half year” value was 99.26 mol %. For the same compound, where the note is “storage at −20±5° C.”, the “Purity after 1 year from purification” value is given as 99.26 mol %, the “Purity after 2 years from purification” value was found to be 99.25 mol % and the “Purity after a half year” value was found to be 99.25 mol %.
`O=C1NC(Cc2ccccc2)C(=O)O1` (stereo not shown) [(N)] returned a Purity after purification under setting [1] of 98.88 mol %. In addition, the Purity after purification under setting [2] came to 98.88 mol %. Besides, where the note is “storage at 0 to 5° C.”, the “Purity after 1 month from purification” value worked out at 98.88 mol %, the “Purity after 2 months from purification” value turned out to be 98.86 mol % and the “Purity after a half year” value was 98.86 mol %. Also, under “storage at −20±5° C.”, the “Purity after 1 year from purification” value is 98.86 mol %, the “Purity after 2 years from purification” value is given as 98.85 mol % and the “Purity after a half year” value is reported as 98.85 mol %.
Regarding `O=C1CCCNC(=O)O1` [(R)], the Purity after purification under setting [1] is on record as 99.03 mol %. This compound yielded a Purity after purification under setting [2] of 99.03 mol %. Further, under “storage at 0 to 5° C.”, the “Purity after 1 month from purification” value was found to be 99.05 mol %, the “Purity after 2 months from purification” value came out at 99.04 mol % and the “Purity after a half year” value was 99.03 mol %. Further, where the note is “storage at −20±5° C.”, the “Purity after 1 year from purification” value is 99.06 mol %, the “Purity after 2 years from purification” value is recorded as 99.05 mol % and the “Purity after a half year” value is on record as 99.07 mol %.
`CC(=O)N1CC(=O)OC1=O` [(M)]: the Purity after purification under setting [1] was 99.22 mol %. Under setting [2], this compound displayed a Purity after purification of 99.22 mol %. Besides, under “storage at 0 to 5° C.”, the “Purity after 1 month from purification” value was 99.23 mol %, the “Purity after 2 months from purification” value is on record as 99.22 mol % and the “Purity after a half year” value was 99.24 mol %. Moreover, where the note is “storage at −20±5° C.”, the “Purity after 1 year from purification” value is 99.23 mol %, the “Purity after 2 years from purification” value is recorded as 99.23 mol % and the “Purity after a half year” value is listed as 99.23 mol %.
In the case of `O=C1CNC(=O)O1` [(J)], under setting [1], the Purity after purification stood at 99.10 mol %. Moreover, the Purity after purification under setting [2] was 99.10 mol %. Besides, under “storage at 0 to 5° C.”, the “Purity after 1 month from purification” value is 99.12 mol %, the “Purity after 2 months from purification” value amounted to 99.10 mol % and the “Purity after a half year” value came out at 99.08 mol %. For the setting “storage at −20±5° C.”, the “Purity after 1 year from purification” value stood at 99.12 mol %, the “Purity after 2 years from purification” value turned out to be 99.10 mol % and the “Purity after a half year” value came out at 99.15 mol %.
`O=C1NC(CCCOCc2ccccc2)C(=O)O1` (stereo not shown) [(E)]: the Purity after purification under setting [1] turned out to be 98.90 mol %. For the same compound, the Purity after purification under setting [2] worked out at 98.90 mol %. In addition, under “storage at 0 to 5° C.”, the “Purity after 1 month from purification” value is listed as 98.90 mol %, the “Purity after 2 months from purification” value was determined as 98.88 mol % and the “Purity after a half year” value was 98.86 mol %. Also, under “storage at −20±5° C.”, the “Purity after 1 year from purification” value is 98.88 mol %, the “Purity after 2 years from purification” value is reported as 98.89 mol % and the “Purity after a half year” value stood at 98.89 mol %.
`O=C1CCNC(=O)O1` [(Q)] gave a Purity after purification under setting [1] of 99.32 mol %. Besides, the Purity after purification under setting [2] turned out to be 99.32 mol %. Moreover, under “storage at 0 to 5° C.”, the “Purity after 1 month from purification” value is 99.31 mol %, the “Purity after 2 months from purification” value amounted to 99.31 mol % and the “Purity after a half year” value stood at 99.32 mol %. For the setting “storage at −20±5° C.”, the “Purity after 1 year from purification” value came out at 99.33 mol %, the “Purity after 2 years from purification” value was 99.33 mol % and the “Purity after a half year” value amounted to 99.33 mol %.
With `CC(C)CC1NC(=O)OC1=O` (stereo not shown) [(P)], the Purity after purification under setting [1] is 98.91 mol %. In addition, the Purity after purification under setting [2] was 98.91 mol %. Where the note is “storage at 0 to 5° C.”, the “Purity after 1 month from purification” value is reported as 98.93 mol %, the “Purity after 2 months from purification” value is listed as 98.94 mol % and the “Purity after a half year” value amounted to 98.94 mol %. Besides, under “storage at −20±5° C.”, the “Purity after 1 year from purification” value is 98.90 mol %, the “Purity after 2 years from purification” value is listed as 98.91 mol % and the “Purity after a half year” value is 98.92 mol %.
For the compound `CN1CC(=O)OC1=O` [(K)], under setting [1], the Purity after purification amounted to 98.94 mol %. Under setting [2], this compound showed a Purity after purification of 98.94 mol %. In addition, under “storage at 0 to 5° C.”, the “Purity after 1 month from purification” value was 98.93 mol %, the “Purity after 2 months from purification” value was found to be 98.92 mol % and the “Purity after a half year” value came to 98.90 mol %. Moreover, under “storage at −20±5° C.”, the “Purity after 1 year from purification” value came to 98.92 mol %, the “Purity after 2 years from purification” value is given as 98.93 mol % and the “Purity after a half year” value is 98.90 mol %.
As for `CC(C)(C)OC(=O)N1CC(=O)OC1=O` [(L)], under setting [1], the Purity after purification amounted to 99.05 mol %. This compound gave a Purity after purification under setting [2] of 99.05 mol %. Where the note is “storage at 0 to 5° C.”, the “Purity after 1 month from purification” value is given as 99.07 mol %, the “Purity after 2 months from purification” value is recorded as 99.05 mol % and the “Purity after a half year” value came out at 99.07 mol %. Further, where the note is “storage at −20±5° C.”, the “Purity after 1 year from purification” value is reported as 99.04 mol %, the “Purity after 2 years from purification” value is 99.05 mol % and the “Purity after a half year” value is 99.02 mol %.
As for `COCOCCCC1NC(=O)OC1=O` (stereo not shown) [(D)], under setting [1], the Purity after purification was 99.00 mol %. Under setting [2], this compound registered a Purity after purification of 99.00 mol %. For the same compound, for the setting “storage at 0 to 5° C.”, the “Purity after 1 month from purification” value is recorded as 98.98 mol %, the “Purity after 2 months from purification” value stood at 99.00 mol % and the “Purity after a half year” value came to 98.95 mol %. For the setting “storage at −20±5° C.”, the “Purity after 1 year from purification” value was 99.00 mol %, the “Purity after 2 years from purification” value is recorded as 99.05 mol % and the “Purity after a half year” value is recorded as 98.95 mol %.
Under setting [1], `CC(C)(C)OC(=O)CC1NC(=O)OC1=O` (stereo not shown) [(H)] returned a Purity after purification of 99.18 mol %. The compound further came in with a Purity after purification under setting [2] of 99.18 mol %. Where the note is “storage at 0 to 5° C.”, the “Purity after 1 month from purification” value was found to be 99.19 mol %, the “Purity after 2 months from purification” value stood at 99.19 mol % and the “Purity after a half year” value is 99.18 mol %. For the setting “storage at −20±5° C.”, the “Purity after 1 year from purification” value worked out at 99.16 mol %, the “Purity after 2 years from purification” value is 99.16 mol % and the “Purity after a half year” value is 99.17 mol %.
Under setting [1], `CC(=O)OCCCC1NC(=O)OC1=O` (stereo not shown) [(C)] returned a Purity after purification of 99.20 mol %. The compound also had a Purity after purification under setting [2] of 99.20 mol %. Under “storage at 0 to 5° C.”, the “Purity after 1 month from purification” value worked out at 99.22 mol %, the “Purity after 2 months from purification” value is on record as 99.21 mol % and the “Purity after a half year” value worked out at 99.19 mol %. In addition, under “storage at −20±5° C.”, the “Purity after 1 year from purification” value is reported as 99.22 mol %, the “Purity after 2 years from purification” value is listed as 99.21 mol % and the “Purity after a half year” value came to 99.22 mol %.
The compound `CC(C)C1NC(=O)OC1=O` (stereo not shown) [(O)] showed a Purity after purification under setting [1] of 98.80 mol %. For the same compound, under setting [2], the Purity after purification stood at 98.80 mol %. Moreover, where the note is “storage at 0 to 5° C.”, the “Purity after 1 month from purification” value is 98.77 mol %, the “Purity after 2 months from purification” value was 98.75 mol % and the “Purity after a half year” value was found to be 98.73 mol %. In addition, where the note is “storage at −20±5° C.”, the “Purity after 1 year from purification” value is 98.79 mol %, the “Purity after 2 years from purification” value is 98.79 mol % and the “Purity after a half year” value came out at 98.77 mol %.

(Values after patent US10975042B2, “Method for purifying an amino acid-n-carboxy anhydride” (SHIN-ETSU CHEMICAL CO., LTD., priority 2018, dated 2021).)
